# Entries after “also recorded” stand apart in the source; their conditions may differ. Where two headings read alike, the source gives them in different places.
# Key:
# H226B cells = experiment: Cell viability, H226B lung cancer cells; type: cell-based, human; conditions: for IC50 (−LogM): H226B, Lung
# A549 cells = experiment: Cell viability, A549 lung cancer cells; type: cell-based, human
# A549CK8 = experiment: Cell viability, A549CK8 lung cancer cells; type: cell-based, human
# Hct116 = experiment: Cell viability, Hct116 colon cancer cells; type: cell-based, human
# CT116P53 = experiment: Cell viability, CT116P53 colon cancer cells; type: cell-based, human
# HKE3 = experiment: Cell viability, HKE3 colon cancer cells; type: cell-based, human; conditions: for IC50 (−LogM): HKE3, Colon; for IC50: Homo sapiens
# H322 cells = experiment: Cell viability, H322 lung cancer cells; type: cell-based, human
# H1299 cells = experiment: Cell viability, H1299 lung cancer cells; type: cell-based, human
# AsPC-1 = experiment: Cell viability, AsPC-1 pancreatic cancer cells; type: cell-based, human
# DLD1 = experiment: Cell viability, DLD1 colon cancer cells; type: cell-based, human
# Heb46 = experiment: Cell viability, Heb46 kidney cells; type: cell-based
# Heb44 = experiment: Cell viability, Heb44 kidney cells; type: cell-based
# Capanc-1 = experiment: Cell viability, Capanc-1 pancreatic cancer cells; type: cell-based, human
# miapac = experiment: Cell viability, miapac pancreatic cancer cells; type: cell-based, human
# H2122 = experiment: Cell viability, H2122 lung cancer cells; type: cell-based, human
# H2009 = experiment: Cell viability, H2009 lung cancer cells; type: cell-based, human
# H1933 = experiment: Cell viability, H1933 lung cancer cells; type: cell-based, human
# H1395 = experiment: Cell viability, H1395 lung cancer cells; type: cell-based, human
# Ovcar3 = experiment: Cell viability, Ovcar3 ovary cancer cells; type: cell-based
# T29Kt1 cells = conditions: for IC50 in T29k cells: Table 1, value is the negative log10 of mol/L
# [1] = In vivo toxicity assay in tumor-bearing nude mice; conditions: for serum ALT, AST, and creatinine levels: 2 days after the last treatment; for histopathologic examination of organs: lung, heart, stomach, small intestine, liver, spleen, pancreas, kidney; for blood cell counts: red blood cells, white blood cells, platelets; for body weights: vs solvent
# SR = experiment: NCI in-vitro testing, SR (Leukemia); type: cell-based
# UACC-62 = experiment: NCI in-vitro testing, UACC-62 (Melanoma)
# HT29 = experiment: NCI in-vitro testing, HT29 (Colon Cancer)
# SF-268 = experiment: NCI in-vitro testing, SF-268 (CNS Cancer)
# SN12C = experiment: NCI in-vitro testing, SN12C (Renal Cancer)
# MCF7 = experiment: NCI in-vitro testing, MCF7 (Breast Cancer)
# DU-145 = experiment: NCI in-vitro testing, DU-145 (Prostate Cancer)
# [2] = Homo sapiens, read-out: IC50 (−LogM) (converted)
structure (smiles),measurement,setting,value
"O=Cc1cn(Cc2ccc(Cl)cc2)c2ccccc12 [Oncrasin K001, 1H-Indole-3-carboxaldehyde, 1-[(4-chlorophenyl)methyl]-(9CI)]",IC50 (−LogM),H226B cells; first H226B line,7 −LogM
same,IC50 (−LogM),H226B cells; second H226B line,5.6 −LogM
same,IC50,"H226B cells; Ras status not known, read-out: IC50, H226B cells",1.2 µM
same,effect on H226b cells,H226B cells; ras status unknown,effective
same,IC50 (−LogM),"A549 cells; A549, Lung",>4.5 −LogM
same,IC50,"A549 cells; K-Ras G12S, read-out: IC50, A549 cells",1.58 µM
same,IC50 (−LogM),"A549CK8; A549CK8, Lung",5.8 −LogM
same,IC50,"Hct116; G13D mutation in K-Ras, read-out: IC50, HCT116",3.1 µM
same,IC50 (−LogM),"Hct116; Hct116, Colon",5.5 −LogM
same,IC50 (−LogM),"CT116P53; CT116P53, Colon",>4.5 −LogM
same,IC50 (−LogM),HKE3; first HKE3 line,6.4 −LogM
same,IC50 (−LogM),HKE3; second HKE3 line,6 −LogM
same,IC50 (−LogM),"H322 cells; H322, Lung",4.5 −LogM
same,toxicity to H322 cells,"H322 cells; at 33 μM (the highest concentration tested), ras wild-type",not toxic
same,effect on H322 cells,"H322 cells; wild-type Ras, listed as Oncrasin-1",minimal effect; also recorded: not effective
same,IC50 (−LogM),"H1299 cells; h1299, Lung",>4.5 −LogM
same,effect on H1299 cells,"H1299 cells; mutant N-Ras, listed as Oncrasin-1",minimal effect; also recorded: not effective
same,IC50 (−LogM),"AsPC-1; ASPC1, Pancrease",5.5 −LogM
same,IC50,"AsPC-1; K-Ras G12D mutation, read-out: IC50, AsPC-1",0.04 µM
same,IC50 (−LogM),"DLD1; DLD1, Colon",>4.5 −LogM
same,IC50 (−LogM),Heb46,6.1 −LogM
same,IC50 (−LogM),Heb44,8 −LogM
same,IC50,"Capanc-1; K-Ras G12V mutation, read-out: IC50, Capanc-1",0.42 µM
same,IC50 (−LogM),"Capanc-1; capanc1, Pancrease",5 −LogM
same,IC50 (−LogM),"miapac; miapac, Pancrease",>4.5 −LogM
same,IC50 (−LogM),"H2122; H2122, Lung",6.1 −LogM
same,IC50,"H2122; K-Ras G12C, read-out: IC50, H2122",0.79 µM
same,effect on H212 cells,"H2122; lung cancer cell line, G12C",highly effective
same,IC50 (−LogM),"H2009; H2009, Lung",>4.5 −LogM
same,IC50 (−LogM),"H1933; H1933, Lung",>4.5 −LogM
same,IC50 (−LogM),"H1395; H1395, Lung",>4.5 −LogM
same,effect on H1395 cells,H1395; wild-type Ras,minimal effect
same,IC50 (−LogM),Ovcar3,5.6 −LogM
same,time course of toxicity in T29Kt1 cells,T29Kt1 cells; 33 μM,time-dependent toxicity
same,concentration that effectively kills T29K cells,T29Kt1 cells; K-ras mutant,10 µM
same,IC50 in T29k cells,T29Kt1 cells,5.6
same,IC50,"T29Kt1 cells; read-out: IC50, T29Kt1 cells, dose-dependent cytotoxicity",2.5 µM
same,selectivity for T29Kt1 (T29K) cells in dose-response study,"T29Kt1 cells; vs T29 and T29Ht1, 0.1 μM to 33 μM",highly selective
same,"serum ALT, AST, and creatinine levels",[1],within the normal range
same,histopathologic examination of organs,[1],no significant lesions
same,blood cell counts,[1],all in the normal ranges
same,body weights,[1],No difference
"O=Cc1cn(Cc2cccc(Cl)c2)c2ccccc12 [Oncrasin K027, 1-(3-chlorobenzyl)-1H-indole-3-carbaldehyde]",IC50,"H226B cells; Homo sapiens, read-out: IC50 (−LogM), H226B, Lung, first H226B line (converted)",0.316 µM
same,IC50,"H226B cells; Homo sapiens, read-out: IC50 (−LogM), H226B, Lung, second H226B line (converted)",3.98 µM
same,IC50,"A549 cells; Homo sapiens, A549, read-out: IC50 (−LogM), A549, Lung (converted)",10 µM
same,IC50,A549CK8; [2],15.8 µM
same,IC50,"Hct116; Homo sapiens, HCT-116, read-out: IC50 (−LogM), Hct116, Colon (converted)",3.98 µM
same,IC50,CT116P53; [2],< 31.6 µM
same,IC50,"HKE3; read-out: IC50 (−LogM), HKE3, Colon, first HKE3 line (converted)",1 µM
same,IC50,"HKE3; read-out: IC50 (−LogM), HKE3, Colon, second HKE3 line (converted)",1.26 µM
same,IC50,"H1299 cells; Homo sapiens, NCI-H1299, read-out: IC50 (−LogM), h1299, Lung (converted)",15.8 µM
same,IC50,"AsPC-1; Homo sapiens, ASPC1, read-out: IC50 (−LogM), ASPC1, Pancrease (converted)",15.8 µM
same,IC50,"DLD1; Homo sapiens, DLD-1, read-out: IC50 (−LogM) (converted)",< 31.6 µM
same,IC50,Heb46,2 µM
same,IC50,Heb44,0.0631 µM
same,IC50,"Capanc-1; Homo sapiens, Pancreatic cancer cell, read-out: IC50 (−LogM), capanc1, Pancrease (converted)",31.6 µM
same,IC50,"miapac; Homo sapiens, Pancreatic cancer cell, read-out: IC50 (−LogM) (converted)",< 31.6 µM
same,IC50,"H2122; Homo sapiens, NCI-H2122, read-out: IC50 (−LogM) (converted)",0.631 µM
same,IC50,"H2009; Homo sapiens, NCI-H2009, read-out: IC50 (−LogM) (converted)",< 31.6 µM
same,IC50,H1933; [2],< 31.6 µM
same,IC50,"H1395; Homo sapiens, NCI-H1395, read-out: IC50 (−LogM) (converted)",< 31.6 µM
same,IC50,"Ovcar3; Homo sapiens, OVCAR-3",3.16 µM
same,TGI,SR,4.26E−8 Molar
same,GI50,SR; Homo sapiens,< 0.01 µM
same,Percent Growth,SR; Log10 Concentration −4.0 Molar,−71%
same,Percent Growth,SR; Log10 Concentration −5.0 Molar,−18%
same,Percent Growth,SR; Log10 Concentration −6.0 Molar,−71%
same,Percent Growth,SR; Log10 Concentration −7.0 Molar,−25%
same,Percent Growth,SR; Log10 Concentration −8.0 Molar,43%
same,IC50 in T29k cells,T29Kt1 cells,6.43
same,GI50,"UACC-62; Homo sapiens, UACC-62",0.0451 µM
same,CC50,"UACC-62; Homo sapiens, UACC-62, read-out: LC50",11.4 µM
same,TGI,UACC-62; UACC-62,8.97E−7 Molar
same,Percent Growth,"UACC-62; UACC-62, Log10 Concentration −4.0 Molar",−94%
same,Percent Growth,"UACC-62; UACC-62, Log10 Concentration −5.0 Molar",−47%
same,Percent Growth,"UACC-62; UACC-62, Log10 Concentration −6.0 Molar",−2%
same,Percent Growth,"UACC-62; UACC-62, Log10 Concentration −7.0 Molar",35%
same,Percent Growth,"UACC-62; UACC-62, Log10 Concentration −8.0 Molar",79%
same,TGI,HT29; HT29,2.01E−6 Molar
same,Percent Growth,"HT29; HT29, Log10 Concentration −4.0 Molar",−66%
same,Percent Growth,"HT29; HT29, Log10 Concentration −5.0 Molar",29%
same,Percent Growth,"HT29; HT29, Log10 Concentration −6.0 Molar",68%
same,Percent Growth,"HT29; HT29, Log10 Concentration −7.0 Molar",79%
same,Percent Growth,"HT29; HT29, Log10 Concentration −8.0 Molar",103%
same,GI50,"HT29; Homo sapiens, HT-29",0.00183 µM
same,CC50,"HT29; Homo sapiens, HT-29, read-out: LC50",6.76 µM
same,GI50,"SF-268; Homo sapiens, SF-268",1.24 µM
same,CC50,"SF-268; Homo sapiens, SF-268, read-out: LC50",> 100 µM
same,TGI,SF-268; SF-268,4.58E−5 Molar
same,Percent Growth,"SF-268; SF-268, Log10 Concentration −4.0 Molar",−30%
same,Percent Growth,"SF-268; SF-268, Log10 Concentration −5.0 Molar",58%
same,Percent Growth,"SF-268; SF-268, Log10 Concentration −6.0 Molar",94%
same,Percent Growth,"SF-268; SF-268, Log10 Concentration −7.0 Molar",93%
same,Percent Growth,"SF-268; SF-268, Log10 Concentration −8.0 Molar",106%
same,TGI,SN12C,1.94E−5 Molar
same,GI50,SN12C; Homo sapiens,3.56 µM
same,CC50,"SN12C; Homo sapiens, read-out: LC50",67.2 µM
same,Percent Growth,SN12C; Log10 Concentration −4.0 Molar,−66%
same,Percent Growth,SN12C; Log10 Concentration −5.0 Molar,27%
same,Percent Growth,SN12C; Log10 Concentration −6.0 Molar,79%
same,Percent Growth,SN12C; Log10 Concentration −7.0 Molar,93%
same,Percent Growth,SN12C; Log10 Concentration −8.0 Molar,97%
same,GI50,"MCF7; Homo sapiens, MCF7",0.0873 µM
same,CC50,"MCF7; Homo sapiens, MCF7, read-out: LC50",> 100 µM
same,TGI,MCF7; MCF7,2.75E−5 Molar
same,Percent Growth,"MCF7; MCF7, Log10 Concentration −4.0 Molar",−10%
same,Percent Growth,"MCF7; MCF7, Log10 Concentration −5.0 Molar",8%
same,Percent Growth,"MCF7; MCF7, Log10 Concentration −6.0 Molar",10%
same,Percent Growth,"MCF7; MCF7, Log10 Concentration −7.0 Molar",45%
same,Percent Growth,"MCF7; MCF7, Log10 Concentration −8.0 Molar",75%
same,TGI,DU-145; DU-145,2.78E−5 Molar
same,Percent Growth,"DU-145; DU-145, Log10 Concentration −4.0 Molar",−53%
same,Percent Growth,"DU-145; DU-145, Log10 Concentration −5.0 Molar",42%
same,Percent Growth,"DU-145; DU-145, Log10 Concentration −6.0 Molar",98%
same,Percent Growth,"DU-145; DU-145, Log10 Concentration −7.0 Molar",108%
same,Percent Growth,"DU-145; DU-145, Log10 Concentration −8.0 Molar",108%
same,GI50,"DU-145; Homo sapiens, DU-145",7.25 µM
same,CC50,"DU-145; Homo sapiens, DU-145, read-out: LC50",93.3 µM
same,"serum ALT, AST, and creatinine levels",[1],within the normal range
same,histopathologic examination of organs,[1],no significant lesions
same,blood cell counts,[1],all in the normal ranges
same,body weights,[1],No difference

# Source: US8883841B2, “Oncogenic ras-specific cytotoxic compound and methods of use thereof” (The Board of Regents of the University of Texas System, priority 2005, dated 2014)
